From patent US9474736B2, “Composition and method for treating dry eye syndrome” (RAMSCOR, INC., priority 2008, dated 2016) come the findings set out here.

SMILES strings stand for the structures. “Also recorded” adds a separate entry of the source.

A short description of data set [1]: Water evaporation from tocopherol/water emulsions. The conditions noted are these: uncapped vials, ambient conditions, nine days. It is filed as physicochemical. The protocol: FIG. 3 is a bar graph depicting the percent water evaporation from a tocopherol/water emulsions at nine days, shown as the percent water lost.
Mixtures of α-tocopheryl acetate (EA), d-α-tocopheryl polyethylene glycol 1000 succinate (TPGS) and water were prepared at the ratios shown in Table 1, weighed, and placed in 20 ml-sized glass vials. Vials #1 through #6 were each capped and sonicated for two minutes to yield stable emulsions. The vials #1 through #8 were then uncapped and left at ambient conditions for nine days. All the emulsions in vials #1 through #6 remained stable. All vials were weighed subsequently to measure weight (water) loss. […] Results are also depicted in FIG. 3.

Data set [2] in a line: Water or saline stably absorbed in α-tocopheryl acetate (evaporative weight loss). The conditions noted are these: sealed vials, 30° C., after 12 hrs. It is filed as physicochemical. Here is the method:
In an alternative study, the concentrations of water or saline that would remain stably absorbed in α-tocopheryl acetate (EA) were examined. Equal volumes of water or 0.9% saline were placed with EA in sealed vials at 30° C. Samples of the resultant EA plus absorbed aqueous were removed at several time points and the water contents were assayed by evaporative weight loss to constant weight over time at 30° C. open to the air. After 12 hrs exposure of EA to water or the saline solution in sealed vials at 30° C. the maximum amounts of aqueous solutions absorbed in EA were reached. The resultant values were: 0.3% water absorbed and 0.6% saline solution absorbed.

A further data set concerns CDE symptoms. The data set is described as follows: Alleviation of CDE symptoms in contact lens-wearing individual, subjective comfort. It is filed as in vivo, human. From the text: FIG. 1 is a bar graph depicting the subjective comfort of an individual applying a drop of α-tocopheryl acetate into the eye(s) before bedtime preceding the days indicated. Subjective comfort is depicted on a scale of 1 to 10; with 1 being very irritated, and right eye feeling swollen; and 10 being very comfortable and tolerable compared to no drops.
A volunteer used one drop of α-tocopheryl acetate in one or more eyes at night, and reported the irritation or comfort on a subjective scale of 1-to-10, (maximum irritation “1”, maximum comfort “10”) as shown in FIG. 1. At days 1 to 5, the individual placed one drop in the right eye only.

Details of data set [3]: species or system New Zealand White (NZW) rabbits. Particulars: both, New Zealand White, rabbit, in vivo. The protocol: FIG. 2 is a graph showing the levels of α-tocopheryl acetate in the tears of rabbits over the course of seven days after the rabbits were administered one drop of α-tocopheryl acetate (3.6 mg, 3.9 mg, 5.4 mg, or 6.0 mg) on day one.
Four adult New Zealand White (NZW) rabbits (two females, two males) each weighing 4.5 kilo to 5.0 kilo were used in this example. One drop of α-tocopheryl acetate, each weighing 3.6 mg, 3.9 mg, 5.4 mg and 6.0 mg, was instilled onto one eye of each animal. Tear samples were collected daily by filter paper, weighed, eluted in 300 μl MeOH and analyzed for tocopheryl acetate (EA) by LC/MS/MS. Detected tear levels of EA over a seven-day period ranged from 15 μg/ml to 36 μg/ml with a mean of 26 μg/ml (26,000 ng/ml). Detectable levels of EA in the cul-de-sac of the rabbit eye may last beyond seven days.

Another data set has as its system dry eye syndrome. The data set is described as follows: Topical application of α-tocopheryl acetate eyedrop in human volunteers with dry eye symptoms. The conditions noted are these: for duration of relief from dry eye symptoms: one drop about 50 μl.

As to `CC(=O)Oc1c(C)c(C)c2c(c1C)CCC(C)(CCC[C@H](C)CCC[C@H](C)CCCC(C)C)O2` (stereo partly drawn) [vial 8, α-tocopheryl acetate], in data set [1], the g wt loss entry was “lost no weight”.
On to `CC(=O)Oc1c(C)c(C)c2c(c1C)CCC(C)(CCC[C@H](C)CCC[C@H](C)CCCC(C)C)O2` (stereo partly drawn) [α-tocopheryl acetate], for which the “maximum saline solution absorbed in EA” value in data set [2] (equal volumes 0.9% saline and EA) is given as 0.6%. Besides, in data set [2] (equal volumes water and EA), the “maximum water absorbed in EA” value amounted to 0.3%. For the same compound, in the data set on CDE symptoms (days 30-38, eyedrops not applied every single night), the “ability to wear contact lenses” value is recorded as “able to wear contact lenses (days 30-38) in relative comfort”. Besides, the “duration of comfort before re-applying eyedrops” value in the data set on CDE symptoms (volunteer, one drop at night) is on record as “up to five days”. Also, the “detected tear levels of EA, mean” value in data set [3] is 26,000 ng/ml. The “irritation or blurred vision reported” value with dry eye syndrome (one drop about 50 μl in eye, two human volunteers) was “No irritation or blurred vision”. Moreover, the “duration of relief from dry eye symptoms” value is reported as “several days; also recorded: at least one day” with dry eye syndrome (no repeat applications, both volunteers) and “at least seven days” with dry eye syndrome (one subject).
